# Laboratory results as given in US5100776A, “Immunological detection process for herbicides” (Dr. Pfeiffer Bioanalytik KG, priority 1987, dated 1992).
# Tested on: antibody (high specificity for atrazine)
# Test: Cross-reactivity of triazines and other herbicides in competitive enzyme immunoassay (inhibition of enzyme tracer binding)
# Set-up: species or system rabbits
# Settings: Cross-activity at a concentration of 2 ppb; inhibition of the enzymatic detection system
# Text: For the preparation of an antibody A, which is preferably directed against the side [drawing 3] of the atrazine molecule, at first the methylthioether group of the triazine ametryn is sulfoxidized with peroxy acid and then the modified ametryn is coupled directly with the beef serum albumin. In the analogous way, for the development of an antibody B, which is preferentially directed against the side: [drawing 4] of the atrazine molecule, one of the ethylamino groups of the triazine simazine is bonded by the carbodiimide process to the protein. Lastly an antibody C which preferably responds to the side: [drawing 5] of the atrazine is produced by coupling the herbicide propazine via one of the isopropylamino groups with the carrier matrix.
# The conjugates prepared as above are inoculated for the generation of antibodies A, B and C in laboratory animals (rabbits) which are then extracted from the sera of the immunized animals by known processes or by affinity chromatography by substituents according to formula (I).
# The antibodies obtained are adsorbed on the polystyrene surface of the microtiter cavities. To this end, the antibodies are dissolved in carbonate buffer (Na2 CO3 /NaHCO3 : 50 mmol/liter; pH 9.6) and respectively 0.25 ml of the solution obtained is pipetted into the individual cavities of the microtiter plate. In the following incubation takes place overnight at room temperature and washing takes place next day with TBS buffer. The well covered plates are then stored dry at -20° C. For analysis 180 μl of the aqueous sample to be investigated (concentration of the substance investigated is from 1 μg/l to 200 mg/l) are poured into the cavities and respectively 50 μl enzyme tracer, a conjugate of alkaline phosphatase and a triazine, which is selected depending on the type of the antibody, are added in the cavities. If the detection is carried out with antibody A, ametryn is coupled with the enzyme, but if antibody B or antibody C are present, simazine or propazine are used.
# The solutions are mixed by brief horizontal shaking of the microtiter plate. After a further incubation period of 1 hour at 20° C., by washing with TBS buffer (50 mmol/l tris-(hydroxymethyl)-aminomethane, 1 mmol/l MgCl2, 50 mmol/l NaCl, pH 7.8 with HCl, 0.05% of polyoxyethylene sorbitan monooleate) all the molecules which are not bonded on the antibody positions are removed. For the quantitative detection of the bonded enzyme tracer, respectively 125 μl phosphatase substrate solution (1 mg p-nitrophenylphosphate per ml carbonate buffer) are poured into the individual cavities. The enzyme reaction takes place at 20° C., but can be accelerated by incubation at higher temperature. The absorption of the solution in the individual cavities is measured by a vertical ray photometer on the wavelength […]. If it is wished to move into the range of higher sensitivities, overnight incubation at 4° C. is recommended. But it must be recalled that without special demands on reagent, device and spatial unit reproducible results in the ppt range are not attainable. The computation of the antigen concentration of the sample is based on the following background. The enzyme tracer bonds at first with the free antibody bonding positions, which are left over after incubation with the sample antigen. Thus in the presence of high concentrations of sample antigen only few enzyme tracers are bonded, but with lower concentration of sample antigens, on the other hand, many enzyme tracers are bonded. The amount of the bonded enzyme tracer is therefore a function of the sample antigen concentration. The absorption of the reacted substrate amount (color reaction from colorless to yellow) is used as the measurement magnitude for the bonding of the enzyme tracer.
# Absorption ratio of unknown sample (B=AB AuB) and zero sample (BO=ABO -AuB):
# B/BO=(AB -AuB l)/(ABO -AuB) […]
row,Structure (SMILES),inhibition (%)
1,Cc1cccc(C)c1N(Cn1cccn1)C(=O)CCl [metazachlor],15.2%
2,O=C(Oc1ccccc1)n1c(C(F)(F)F)nc2cc(Cl)c(Cl)cc21 [fenazaflor],4.4%
3,CSc1nnc(C(C)(C)C)c(=O)n1N [metribuzine],6.7%
4,"CCNc1nc(Cl)nc(NC(C)C)n1 [atrazine, 2-chloro-4-ethylamino-6-isopropylamino-1,3,5-triazine]",6.0%
5,CCNc1nc(N)nc(SC)n1 [desisopropylametryn],16.5%
6,CNC(=O)N(C)c1nc2ccccc2s1 [metabenzthiazuron],8.3%
7,CSc1nc(N)nc(NC(C)C)n1 [desethylametryn],16.8%
8,CCNc1nc(NC(C)C)nc(SC)n1 [ametryn],21.4%
9,CCC(C)n1c(=O)[nH]c(C)c(Br)c1=O (stereo not drawn) [bromazile],11.1%
